Results published in US20240158392A1 (Janssen Biotech, Inc., priority 2021, published 2024).
Where two headings read alike, the source gives them in different places.

Target: SIK2 (Homo sapiens, UniProt Q9H0K1)
Assay: SIK2 Enzymatic Assay High Version 2 (High ATP)
Type: biochemical
Outline: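 At room temperature, enzyme (6 nM, 2× final) was preincubated with compound for 30 min, then 6 mM ATP and 400 μM HDAC5tide (both 2× final) were added for 2 h. ADP formed was measured by ADP-Glo Max (2 h reagent, 1 h detection) using luminescence.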

[1] = enzyme 6 nM, 6 mM ATP and 400 μM HDAC5tide (each 2× final concentration), 30 minutes pre-incubation, 2 hours, ADP-Glo Max luminescence, read-out: SIK2 high ATP IC50 (μM) (Test Example 2)

Sequence of SIK2 (Q9H0K1 whole entry, species assumed): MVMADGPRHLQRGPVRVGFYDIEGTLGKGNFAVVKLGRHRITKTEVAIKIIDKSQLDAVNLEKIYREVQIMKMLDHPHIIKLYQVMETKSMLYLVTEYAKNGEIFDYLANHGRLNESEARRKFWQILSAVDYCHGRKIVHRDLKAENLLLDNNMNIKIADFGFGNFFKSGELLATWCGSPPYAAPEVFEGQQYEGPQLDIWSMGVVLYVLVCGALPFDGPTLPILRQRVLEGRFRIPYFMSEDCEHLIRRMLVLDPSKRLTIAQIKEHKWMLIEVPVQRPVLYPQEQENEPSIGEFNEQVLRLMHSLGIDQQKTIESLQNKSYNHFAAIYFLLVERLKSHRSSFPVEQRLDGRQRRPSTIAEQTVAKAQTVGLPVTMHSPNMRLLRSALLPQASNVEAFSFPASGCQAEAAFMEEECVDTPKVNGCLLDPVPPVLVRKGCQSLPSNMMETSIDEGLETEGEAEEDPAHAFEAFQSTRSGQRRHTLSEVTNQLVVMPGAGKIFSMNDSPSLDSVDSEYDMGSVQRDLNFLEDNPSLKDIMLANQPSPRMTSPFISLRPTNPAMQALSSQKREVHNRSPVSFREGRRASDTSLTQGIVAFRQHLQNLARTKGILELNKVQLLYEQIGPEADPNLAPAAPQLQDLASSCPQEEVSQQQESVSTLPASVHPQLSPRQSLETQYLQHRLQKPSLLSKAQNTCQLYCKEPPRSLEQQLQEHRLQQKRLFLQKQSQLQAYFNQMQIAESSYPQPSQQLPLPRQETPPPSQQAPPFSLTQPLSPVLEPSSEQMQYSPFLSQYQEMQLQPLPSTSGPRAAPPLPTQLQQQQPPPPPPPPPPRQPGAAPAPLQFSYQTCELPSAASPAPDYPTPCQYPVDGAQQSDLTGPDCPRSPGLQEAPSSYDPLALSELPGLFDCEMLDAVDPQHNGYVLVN

Row | SMILES | IC50 [1] | IC50
1 | CNC(=O)c1ccnc(Nc2cc3cc(-c4cc(C)ncc4O[C@H]4C[C@H]5COC[C@@H](C4)N5S(=O)(=O)C4CC4)ccn3n2)c1 [Example 635, 2-((5-(5-(((1R,5S,7s)-9-(cyclopropylsulfonyl)-3-oxa-9-azabicyclo[3.3.1]nonan-7-yl)oxy)-2-methylpyridin-4-yl)pyrazolo[1,5-a]pyridin-2-yl)amino)-N-methylisonicotinamide] | – | 0.00197 µM
2 | Cc1cc(-c2ccn3nc(Nc4cnn(CC(C)(C)O)c4)cc3c2)c(O[C@H]2C[C@H]3COC[C@@H](C2)N3)cn1 [Example 121] | – | 0.00116 µM
3 | Cc1cc(-c2ccn3nc(Nc4ccc(C(F)(F)F)cn4)cc3c2)c(O[C@H]2C[C@H]3COC[C@@H](C2)N3)cn1 [Example 374, 5-[2-methyl-5-[[(1S,5R,7s)-3-oxa-9-azabicyclo[3.3.1]nonan-7-yl]oxy]-4-pyridyl]-N-[5-(trifluoromethyl)-2-pyridyl]pyrazolo[1,5-a]pyridin-2-amine] | – | < 0.000847 µM
4 | Cc1cc(-c2ccn3nc(NC(=O)C4CC4)cc3c2)c(OCC(C)(N)C(F)(F)F)cn1 (single isomer, unassigned) [Example 159, (*R)—N-[5-[5-(2-amino-3,3,3-trifluoro-2-methyl-propoxy)-2-methyl-4-pyridyl]pyrazolo[1,5-a]pyridin-2-yl]cyclopropanecarboxamide] | 0.0107 µM | –
5 | Cc1cc(-c2ccn3nc(Nc4cc(C)nc(C)n4)cc3c2)c(O[C@H]2C[C@H]3COC[C@@H](C2)N3C)cn1 [Example 417, N-(2,6-dimethylpyrimidin-4-yl)-5-[2-methyl-5-[[(1S,5R,7s)-9-methyl-3-oxa-9-azabicyclo[3.3.1]nonan-7-yl]oxy]-4-pyridyl]pyrazolo[1,5-a]pyridin-2-amine] | – | < 0.000847 µM
6 | Cc1cc(-c2ccn3nc(Nc4cc(C(=O)NC(C)C)n(C)n4)cc3c2)c(O[C@H]2C[C@H]3COC[C@@H](C2)N3)cn1 [Example 341, N-isopropyl-2-methyl-5-[[5-[2-methyl-5-[[(1S,5R)-3-oxa-9-azabicyclo[3.3.1]nonan-7-yl]oxy]-4-pyridyl]pyrazolo[1,5-a]pyridin-2-yl]amino]pyrazole-3-carboxamide] | – | < 0.000847 µM
7 | Cc1cc(-c2ccn3nc(NC(=O)C4CC4)cc3c2)c(O[C@H]2CCN[C@@H](C(F)(F)F)C2)cn1 (single isomer, unassigned) [Example 446] | 0.00318 µM | –
8 | CCNc1nc(Nc2cc3cc(-c4cc(OC(F)F)ncc4OCC(C)(C)C#N)ccn3n2)cc(C(F)(F)F)n1 [Example 700, 3-[[6-(difluoromethoxy)-4-[2-[[2-(ethylamino)-6-(trifluoromethyl)pyrimidin-4-yl]amino]pyrazolo[1,5-a]pyridin-5-yl]-3-pyridyl]oxy]-2,2-dimethyl-propanenitrile] | 0.00786 µM | –
9 | Cc1cc(-c2ccn3nc(Nc4cn(CC(C)(C)O)nc4C(=O)C(F)(F)F)cc3c2)c(O[C@H]2C[C@H]3COC[C@@H](C2)N3)cn1 [Example 122, 1-(4-((5-(5-(((1R,5S,7s)-3-oxa-9-azabicyclo[3.3.1]nonan-7-yl)oxy)-2-methylpyridin-4-yl)pyrazolo[1,5-a]pyridin-2-yl)amino)-1-(2-hydroxy-2-methylpropyl)-1H-pyrazol-3-yl)-2,2,2-trifluoroethan-1-one] | – | 2.43 µM
10 | Cc1cc(-c2ccn3nc(Nc4ccc(C(=O)NCCO)cn4)cc3c2)c(O[C@H]2C[C@H]3COC[C@@H](C2)N3)cn1 [Example 369, N-(2-hydroxyethyl)-6-[[5-[2-methyl-5-[[(1S,5R,7s)-3-oxa-9-azabicyclo[3.3.1]nonan-7-yl]oxy]-4-pyridyl]pyrazolo[1,5-a]pyridin-2-yl]amino]pyridine-3-carboxamide] | – | 0.00164 µM

More lines, main results first:

Row | IC50 [1] | SMILES | IC50
11 | 0.0101 µM | Cc1cc(-c2ccn3nc(Nc4cc(C)nc(C)n4)cc3c2)c(OCc2ccccc2OC(F)F)cn1 [Example 553, 5-[5-[[2-(difluoromethoxy)phenyl]methoxy]-2-methyl-4-pyridyl]-N-(2,6-dimethylpyrimidin-4-yl)pyrazolo[1,5-a]pyridin-2-amine] | –
12 | 0.0251 µM | Cc1cc(-c2ccn3nc(NC(=O)C4CC4)cc3c2)c(OC[C@]2(F)CCN(C)C2)cn1 (single isomer, unassigned) [Example 519, (*S)—N-[5-[5-[(3-fluoro-1-methyl-pyrrolidin-3-yl)methoxy]-2-methyl-4-pyridyl]pyrazolo[1,5-a]pyridin-2-yl]cyclopropanecarboxamide] | –
13 | 0.00352 µM | Cc1cc(Nc2cc3cc(-c4cc(OCC(F)(F)F)ncc4OC[C@H]4OCC[C@@H]4O)ccn3n2)nc(C)n1 [Example 499, (2R,3S)-2-[[4-[2-[(2,6-dimethylpyrimidin-4-yl)amino]pyrazolo[1,5-a]pyridin-5-yl]-6-(2,2,2-trifluoroethoxy)-3-pyridyl]oxymethyl]tetrahydrofuran-3-ol] | –
14 | 0.00403 µM | Cc1cc(-c2ccn3nc(Nc4cccc(C)n4)cc3c2)c(OC[C@@H]2CNCCO2)cn1 [Example 426, 5-[2-methyl-5-[[(2S)-morpholin-2-yl]methoxy]-4-pyridyl]-N-(6-methyl-2-pyridyl)pyrazolo[1,5-a]pyridin-2-amine] | –
15 | 0.00254 µM | Cc1cc(Nc2cc3cc(-c4cc(C(F)(F)F)ncc4OCC(C)(C)C#N)ccn3n2)nc(C)n1 [Example 494, 3-[[4-[2-[(2,6-dimethylpyrimidin-4-yl)amino]pyrazolo[1,5-a]pyridin-5-yl]-6-(trifluoromethyl)-3-pyridyl]oxy]-2,2-dimethyl-propanenitrile] | –
16 | 0.00555 µM | CO[C@H]1CNC[C@@H]1COc1cnc(C)cc1-c1ccn2nc(NC(=O)C3CC3)cc2c1 (relative stereo) [Example 458, Trans-*R, *R—N-[5-[5-[(4-methoxypyrrolidin-3-yl)methoxy]-2-methyl-4-pyridyl]pyrazolo[1,5-a]pyridin-2-yl]cyclopropanecarboxamide] | –
17 | 0.116 µM | Cc1cc(-c2ccn3nc(Nc4cnccn4)cc3c2)c(OC[C@H]2CN(C)CCO2)cn1 [Example 611, 5-[2-methyl-5-[[(2R)-4-methylmorpholin-2-yl]methoxy]-4-pyridyl]-N-pyrazin-2-yl-pyrazolo[1,5-a]pyridin-2-amine] | –
18 | 0.0443 µM | Cc1cc(Nc2cc3cc(-c4cc(OCCO)ncc4OCC(C)(C)C#N)ccn3n2)nc(C)n1 [Example 678, 3-[[4-[2-[(2,6-dimethylpyrimidin-4-yl)amino]pyrazolo[1,5-a]pyridin-5-yl]-6-(2-hydroxyethoxy)-3-pyridyl]oxy]-2,2-dimethyl-propanenitrile] | –
19 | 0.04 µM | Cc1cc(-c2ccn3nc(NC(=O)C4CC4)cc3c2)c(OCC2(C)CCN2C)cn1 (single isomer, unassigned) [Example 450, (*S)—N-[5-[5-[(1,2-dimethylazetidin-2-yl)methoxy]-2-methyl-4-pyridyl]pyrazolo[1,5-a]pyridin-2-yl]cyclopropanecarboxamide] | –
20 | 0.0172 µM | Cc1cnc(Nc2cc3cc(-c4cc(C)ncc4OC[C@]45C[C@H](CO4)N(C)C5)ccn3n2)cn1 [Example 236, 5-[2-methyl-5-[[(1R,4R)-2-methyl-5-oxa-2-azabicyclo[2.2.1]heptan-4-yl]methoxy]-4-pyridyl]-N-(5-methylpyrazin-2-yl)pyrazolo[1,5-a]pyridin-2-amine] | –
21 | 0.0273 µM | Cc1cc(-c2ccn3nc(Nc4ccc(S(=O)(=O)NC5CC5)cc4)cc3c2)c(O[C@H]2CC[C@H](O)CC2)cn1 [Example 323, N-cyclopropyl-4-[[5-[5-(4-hydroxycyclohexoxy)-2-methyl-4-pyridyl]pyrazolo[1,5-a]pyridin-2-yl]amino]benzenesulfonamide] | –
